Laboratory results taken from article doi:10.1101/158956v2 (biorxiv, 2017).

Assays:
PfFHΔ40 (PfFΔ40) [1] = biological target: T1, PfFHΔ40 (PfFΔ40) (Plasmodium falciparum, UniProt Q8I2N6); assay: spectrophotometric initial velocity, global fit to competitive model; assay type: biochemical
T1 sequence (Q8I2N6 41-681): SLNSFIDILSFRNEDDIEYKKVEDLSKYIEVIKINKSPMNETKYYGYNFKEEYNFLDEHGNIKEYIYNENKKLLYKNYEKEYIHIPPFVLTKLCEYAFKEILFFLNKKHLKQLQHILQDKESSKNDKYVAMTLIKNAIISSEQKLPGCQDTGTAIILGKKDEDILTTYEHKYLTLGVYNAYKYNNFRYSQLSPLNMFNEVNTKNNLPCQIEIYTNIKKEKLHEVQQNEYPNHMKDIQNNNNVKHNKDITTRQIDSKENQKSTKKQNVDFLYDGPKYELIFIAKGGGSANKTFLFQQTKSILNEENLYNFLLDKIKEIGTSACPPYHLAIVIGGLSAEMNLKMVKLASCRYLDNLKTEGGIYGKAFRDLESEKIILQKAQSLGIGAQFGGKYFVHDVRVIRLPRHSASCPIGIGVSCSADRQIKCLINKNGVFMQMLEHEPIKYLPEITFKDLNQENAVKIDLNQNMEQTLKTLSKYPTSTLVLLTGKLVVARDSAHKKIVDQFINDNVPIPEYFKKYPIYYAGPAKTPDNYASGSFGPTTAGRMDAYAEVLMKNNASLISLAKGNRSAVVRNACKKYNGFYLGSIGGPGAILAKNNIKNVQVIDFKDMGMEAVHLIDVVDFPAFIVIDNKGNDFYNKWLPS

EcFumA = biological target: T2, EcFumA (Escherichia coli, UniProt P0AC33); assay: spectrophotometric initial velocity; assay type: biochemical
T2 sequence (P0AC33 2-548): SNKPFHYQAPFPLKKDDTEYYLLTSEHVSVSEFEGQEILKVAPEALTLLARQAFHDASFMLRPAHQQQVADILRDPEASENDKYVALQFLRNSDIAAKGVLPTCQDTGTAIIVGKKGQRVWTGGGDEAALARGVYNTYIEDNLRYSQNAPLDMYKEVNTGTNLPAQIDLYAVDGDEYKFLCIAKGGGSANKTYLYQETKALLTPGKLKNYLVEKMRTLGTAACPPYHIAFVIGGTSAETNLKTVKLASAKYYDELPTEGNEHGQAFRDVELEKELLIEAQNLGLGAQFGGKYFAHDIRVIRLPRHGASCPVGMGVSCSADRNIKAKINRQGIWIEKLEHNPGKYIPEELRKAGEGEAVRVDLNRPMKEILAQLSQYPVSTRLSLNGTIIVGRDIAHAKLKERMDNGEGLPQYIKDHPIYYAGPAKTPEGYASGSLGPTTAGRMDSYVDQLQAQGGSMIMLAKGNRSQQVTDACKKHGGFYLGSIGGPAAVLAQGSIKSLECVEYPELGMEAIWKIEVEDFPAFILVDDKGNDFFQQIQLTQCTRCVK

PfFHΔ40 (PfFΔ40) [2] = biological target: T1, PfFHΔ40 (PfFΔ40); assay: spectrophotometric initial velocity, Michaelis-Menten fit; details: 50 mM Tris-HCl pH 8.5, 37 °C
PfFHΔ40 (PfFΔ40) [3] = biological target: T1, PfFHΔ40 (PfFΔ40); assay: spectrophotometric initial velocity; assay type: biochemical
EcFumC = biological target: T3, EcFumC (Escherichia coli, UniProt P05042); assay: spectrophotometric initial velocity; assay type: biochemical
T3 sequence (P05042 1-467): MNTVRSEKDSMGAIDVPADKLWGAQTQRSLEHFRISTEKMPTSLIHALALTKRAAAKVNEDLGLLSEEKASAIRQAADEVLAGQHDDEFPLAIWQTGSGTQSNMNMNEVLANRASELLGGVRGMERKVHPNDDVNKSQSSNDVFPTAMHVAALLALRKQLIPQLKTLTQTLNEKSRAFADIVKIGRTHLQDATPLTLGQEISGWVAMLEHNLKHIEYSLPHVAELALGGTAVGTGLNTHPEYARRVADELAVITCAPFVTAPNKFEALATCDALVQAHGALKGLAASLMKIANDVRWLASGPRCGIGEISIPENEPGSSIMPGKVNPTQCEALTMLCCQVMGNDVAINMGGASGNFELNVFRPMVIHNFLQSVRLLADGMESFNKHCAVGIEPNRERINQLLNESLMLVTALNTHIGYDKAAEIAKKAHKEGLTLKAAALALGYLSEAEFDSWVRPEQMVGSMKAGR

purified protein [4] = substrate: O=C(O)C[C@H](O)C(=O)O; assay: purified protein; details: 50 mM Tris-HCl pH 8.5, 37 °C
purified protein [5] = substrate: C/C(=C\C(=O)O)C(=O)O; assay: purified protein; details: 50 mM Tris-HCl pH 8.5, 37 °C

Molecule: O=C(O)CC(S)C(=O)O (racemic) [DL-mercaptosuccinic acid]
- Ki (PfFHΔ40 (PfFΔ40) [1]): 0.548 ± 0.046 µM
- Ki (EcFumA): 2.9 ± 0.22 µM

Molecule: O=C(O)/C=C/C(=O)O [fumarate]
- Km (PfFHΔ40 (PfFΔ40) [2]): 2600 ± 300 µM

Molecule: O=C(O)C(O)C(O)C(=O)O (stereo not drawn) [meso-tartrate]
- Ki (PfFHΔ40 (PfFΔ40) [3]): 114 ± 17 µM
- Ki (EcFumA): 625 µM
- Ki (EcFumC): 652 µM

B1: PfFHΔ40 (PfFΔ40) (Plasmodium falciparum 3D7) (protein)
chain: SLNSFIDILSFRNEDDIEYKKVEDLSKYIEVIKINKSPMNETKYYGYNFKEEYNFLDEHGNIKEYIYNENKKLLYKNYEKEYIHIPPFVLTKLCEYAFKEILFFLNKKHLKQLQHILQDKESSKNDKYVAMTLIKNAIISSEQKLPGCQDTGTAIILGKKDEDILTTYEHKYLTLGVYNAYKYNNFRYSQLSPLNMFNEVNTKNNLPCQIEIYTNIKKEKLHEVQQNEYPNHMKDIQNNNNVKHNKDITTRQIDSKENQKSTKKQNVDFLYDGPKYELIFIAKGGGSANKTFLFQQTKSILNEENLYNFLLDKIKEIGTSACPPYHLAIVIGGLSAEMNLKMVKLASCRYLDNLKTEGGIYGKAFRDLESEKIILQKAQSLGIGAQFGGKYFVHDVRVIRLPRHSASCPIGIGVSCSADRQIKCLINKNGVFMQMLEHEPIKYLPEITFKDLNQENAVKIDLNQNMEQTLKTLSKYPTSTLVLLTGKLVVARDSAHKKIVDQFINDNVPIPEYFKKYPIYYAGPAKTPDNYASGSFGPTTAGRMDAYAEVLMKNNASLISLAKGNRSAVVRNACKKYNGFYLGSIGGPGAILAKNNIKNVQVIDFKDMGMEAVHLIDVVDFPAFIVIDNKGNDFYNKWLPS
- Km (purified protein [4]): 1200 ± 100 µM
- Km (purified protein [5]): 3200 ± 300 µM
